Tested on: T47D human breast carcinoma cells
Assay: cells
Format: cell-based
Details: for activation at 0.1 µM / inhibition at 0.1 µM / IC50 / EC50: Homo sapiens, T47D; for activation at 0.1 µM: 48 h, read-out: PS [100 nM] (% stimulation); for inhibition at 0.1 µM: read-out: PI [100 nM] (% inhibition); for IC50: read-out: pIC50 (converted); for EC50: read-out: pEC50 (converted); for PS [100 nM] (% stimulation): agonistic mode, alkaline phosphatase induction (100% = 1 nM Dydrogesterone); for PS [100 nM] (% stimulation) / PI [100 nM] (% inhibition): compound 100 nM; for PI [100 nM] (% inhibition): antagonistic mode, inhibition of alkaline phosphatase induction by 1 nM Dydrogesterone; for pIC50: antagonistic potency against 1 nM Dydrogesterone
Experimental: The progesterone-dependent modulation of alkaline phosphatase expression was examined using T47D human breast carcinoma cells [Keydar et al., 1979]. The assay was performed as previously described by Di Lorenzo et al. (1991) with the modification of using Dydrogesterone as comparative progestin to determine the antagonistic and agonistic activity.
The cell line was purchased from CLS Cell Lines Service (Hildastrasse 21, D-69214 Eppelheim, Germany). In brief, the cells were plated in 96-well plates at 40,000 cells/well using the following growth medium: RPMI 1640 with: 10% FBS, 1 mM Sodium Pyruvat MEM, 10 mM Hepes, 0.01 mg/ml Bovine insulin, and 25 μg/ml Gentamycin. After 24 h of cultivation, the growth medium was replaced with medium containing 2% fetal bovine serum and the test compounds were added to each well to achieve the appropriate compound concentration: For determination of agonistic activity only the test compounds were added; for measurement of antagonistic activity the test compounds and additionally Dydrogesterone as standard progesterone agonist was added to a final concentration of 1 nM. After 48 h of cultivation, the medium was removed and the cells were washed with 200 μl of Dulbecco's phosphate-buffered saline without calcium and magnesium (PBS(−)). Then the cells were fixed with 3.7% formaldehyde in phosphate-buffered saline for 15 min at 22° C. After washing the cells with PBS, 100 μl of a […] (pNPP) solution (pNPP Liquid Substrate System; Sigma) was added to each well and incubated for 2 h at room temperature protected from light. The reaction was stopped with 100 μl 1N NaOH and the absorbance was measured with a spectrophotometer (Victor, Perkin Elmer) at 405 nm. The results are expressed as alkaline phosphatase induction (as 100% with 1 nM Dydrogesterone) or inhibition (against alkaline phosphatase induction by 1 nM Dydrogesterone) at a certain concentration of test compound.
% stimulation=(effect compound−basal)/(effect dydro 1 nM−basal)*100% inhibition of 1 nM Dydro=100*{1-[(effect compound−basal)/(effect dydro 1 nM−basal)]}
For each compound the % inhibition (PI) and % stimulation (PS), respectively, at a compound concentration of 100 nM was determined. For selected compounds, the corresponding values were measured for several different concentrations, and subsequently were plotted against the concentration of the test compound, and used to calculate the IC50 value (for the antagonistic potency; the IC50 value is the concentration (nM), required to reduce the maximal response by 50%) and EC50 values (for the agonistic potency; the EC50 value is the effective concentration (nM) that produced 50% of the maximum response), respectively.

CC(=O)[C@H]1CC[C@H]2[C@@H]3C=CC4=CC(=O)CC[C@@]4(C)[C@@H]3[C@@H](OC(=O)NC(C)C)C[C@]12C [Compound No. 1, Dydrogesterone-11β-yl isopropylcarbamate]
activation at 0.1 µM: -3%
inhibition at 0.1 µM: 46%
IC50: 158 nM

COc1ccc(NC(=O)O[C@H]2C[C@]3(C)[C@@H](C(C)=O)CC[C@H]3[C@@H]3C=CC4=CC(=O)CC[C@@]4(C)[C@@H]32)cc1 [Compound No. 11, (4-Methoxy-phenyl)-carbamic acid dydrogesterone-11β-yl ester]
activation at 0.1 µM: 0%
inhibition at 0.1 µM: 39%

CCO[C@]1(C(C)=O)CC[C@H]2[C@@H]3C=CC4=CC(=O)CC[C@@]4(C)[C@@H]3[C@@H](OC(=O)Nc3cccc(OC)c3)C[C@@]21C [Compound No. 12, (3-Methoxy-phenyl)-carbamic acid 17-ethoxy-dydrogesterone-11β-yl ester]
activation at 0.1 µM: 23%
inhibition at 0.1 µM: 72%
IC50: 6.31 nM

CC(=O)[C@H]1CC[C@H]2[C@@H]3C=CC4=CC(=O)CC[C@@]4(C)[C@@H]3[C@@H](OC(=O)Nc3cccc(C(N)=O)c3)C[C@]12C [Compound No. 14, (3-Carbamoyl-phenyl)-carbamic acid dydrogesterone-11β-yl ester]
activation at 0.1 µM: -1%
inhibition at 0.1 µM: 38%
IC50: 50.1 nM

COc1cccc(NC(=O)O[C@H]2C[C@]3(C)[C@@H](C(C)=O)CC[C@H]3[C@@H]3C=CC4=CC(=O)CC[C@@]4(C)[C@@H]32)c1 [Compound No. 15, (3-Methoxy-phenyl)-carbamic acid dydrogesterone-11β-yl ester]
activation at 0.1 µM: -3%
inhibition at 0.1 µM: 43%
IC50: 126 nM

COc1ccc(C(=O)O[C@H]2C[C@]3(C)[C@@H](C(C)=O)CC[C@H]3[C@@H]3C=CC4=CC(=O)CC[C@@]4(C)[C@@H]32)cc1 [Compound No. 22, 4-Methoxy-benzoic acid dydrogesterone-11β-yl ester]
activation at 0.1 µM: 29%
inhibition at 0.1 µM: 55%
EC50: 12.6 nM
IC50: 20 nM

CCO[C@]1(C(C)=O)CC[C@H]2[C@@H]3C=CC4=CC(=O)CC[C@@]4(C)[C@@H]3[C@@H](OC(=O)c3ccccc3)C[C@@]21C [Compound No. 23, Benzoic acid 17-ethoxy-dydrogesterone-11β-yl ester]
activation at 0.1 µM: 16%
inhibition at 0.1 µM: 69%
IC50: 15.8 nM

CCNC(=O)O/N=C/c1cccc(NC(=O)O[C@H]2C[C@]3(C)[C@@H](C(C)=O)CC[C@H]3[C@@H]3C=CC4=CC(=O)CC[C@@]4(C)[C@@H]32)c1 [Compound No. 33, [3-(N-Ethylcarbamoyl-oximino-formyl)-phenyl]-carbamic acid dydrogesterone-11β-yl ester]
activation at 0.1 µM: 56%
inhibition at 0.1 µM: -29%
EC50: 200 nM

CC(=O)[C@H]1CC[C@H]2[C@@H]3C=CC4=CC(=O)CC[C@]4(C)[C@H]3C(OC(=O)Nc3ccc4ncccc4c3)C[C@]12C (some centres unmarked) [compound 69, Quinolin-6-yl-carbamic aciddydrogesterone-11-yl ester]
PS [100 nM] (% stimulation) (T47D cells): 4.0%
PI [100 nM] (% inhibition) (T47D cells): 41.0%
pIC50 (T47D cells): 7.2

CC(=O)[C@H]1CC[C@H]2[C@@H]3C=CC4=CC(=O)CC[C@@]4(C)[C@@H]3C(OC(=O)Nc3ccc4c(c3)OCCO4)C[C@]12C (some centres unmarked) [compound 70, (2,3-Dihydro-benzo[1,4]dioxin-6-yl)-carbamic aciddydrogesterone-11-yl ester]
PS [100 nM] (% stimulation) (T47D cells): 1.0%
PI [100 nM] (% inhibition) (T47D cells): 44.0%
pIC50 (T47D cells): 6.9

CC(=O)[C@H]1CC[C@H]2[C@@H]3C=CC4=CC(=O)CC[C@@]4(C)[C@@H]3C(OC(=O)Nc3cccc(OC(F)(F)F)c3)C[C@]12C (some centres unmarked) [compound 74, (3-Trifluoromethoxy-phenyl)-carbamic acid dydrogesterone-11-yl ester]
PS [100 nM] (% stimulation) (T47D cells): 89.0%
pEC50 (agonistic potency, T47D cells): 6.3
PI [100 nM] (% inhibition) (T47D cells): −23.0%

CC(=O)[C@H]1CC[C@H]2[C@@H]3C=CC4=CC(=O)CC[C@@]4(C)[C@@H]3C(OC(=O)Nc3ccc(OC(F)F)cc3)C[C@]12C (some centres unmarked) [compound 75, (4-Difluoromethoxy-phenyl)-carbamic acid dydrogesterone-11-yl ester]
PS [100 nM] (% stimulation) (T47D cells): 0.0%
PI [100 nM] (% inhibition) (T47D cells): 59.0%
pIC50 (T47D cells): 6.9

CC(=O)[C@H]1CC[C@H]2[C@@H]3C=CC4=CC(=O)CC[C@@]4(C)[C@@H]3C(OC(=O)Nc3ccc(C)c(Br)c3)C[C@]12C (some centres unmarked) [compound 76, (3-Bromo-4-methyl-phenyl)-carbamic acid dydrogesterone-11-yl ester]
PS [100 nM] (% stimulation) (T47D cells): 4.0%
PI [100 nM] (% inhibition) (T47D cells): 67.0%
pIC50 (T47D cells): 7.3

CC(=O)[C@H]1CC[C@H]2[C@@H]3C=CC4=CC(=O)CC[C@@]4(C)[C@@H]3C(OC(=O)Nc3ccc4cc[nH]c4c3)C[C@]12C (some centres unmarked) [compound 88, (1H-Indol-6-yl)-carbamic aciddydrogesterone-11-yl ester]
PS [100 nM] (% stimulation) (T47D cells): 0.0%
PI [100 nM] (% inhibition) (T47D cells): 48.0%

CSc1ccc(NC(=O)OC2C[C@]3(C)[C@@H](C(C)=O)CC[C@H]3[C@@H]3C=CC4=CC(=O)CC[C@@]4(C)[C@H]23)cc1 (some centres unmarked) [compound 94, (4-Methylsulfanyl-phenyl)-carbamic acid dydrogesterone-11-yl ester]
PS [100 nM] (% stimulation) (T47D cells): 1.0%
PI [100 nM] (% inhibition) (T47D cells): 61.0%
pIC50 (T47D cells): 7.0

CC(=O)Nc1cccc(NC(=O)OC2C[C@]3(C)[C@@H](C(C)=O)CC[C@H]3[C@@H]3C=CC4=CC(=O)CC[C@@]4(C)[C@H]23)c1 (some centres unmarked) [compound 95, (3-Acetylamino-phenyl)-carbamicacid dydrogesterone-11-yl ester]
PS [100 nM] (% stimulation) (T47D cells): 1.0%
PI [100 nM] (% inhibition) (T47D cells): 50.0%
pIC50 (T47D cells): 6.8

CC(=O)[C@H]1CC[C@H]2[C@@H]3C=CC4=CC(=O)CC[C@@]4(C)[C@@H]3C(OC(=O)Nc3ccc4c(c3)S(=O)(=O)C=C4)C[C@]12C (some centres unmarked) [compound 98, (1,1-Dioxo-1H-1lambda*6*-benzo[b]thiophen-6-yl)-carbamicacid dydrogesterone-11-yl ester]
PS [100 nM] (% stimulation) (T47D cells): 1.0%
PI [100 nM] (% inhibition) (T47D cells): 61.0%
pIC50 (T47D cells): 7.0

CC(=O)[C@H]1CC[C@H]2[C@@H]3C=CC4=CC(=O)CC[C@@]4(C)[C@@H]3C(OC(=O)Nc3cccc(N4CCCC4=O)c3)C[C@]12C (some centres unmarked) [compound 100, [3-(2-Oxo-pyrrolidin-1-yl)-phenyl]-carbamic aciddydrogesterone-11-yl ester]
PS [100 nM] (% stimulation) (T47D cells): 1.0%
PI [100 nM] (% inhibition) (T47D cells): 45.0%
pIC50 (T47D cells): 6.6

CC(=O)[C@H]1CC[C@H]2[C@@H]3C=CC4=CC(=O)CC[C@@]4(C)[C@@H]3C(OC(=O)Nc3cccc(-n4cccc4)c3)C[C@]12C (some centres unmarked) [compound 103, (3-Pyrrol-1-yl-phenyl)-carbamicacid dydrogesterone-11-yl ester]
PS [100 nM] (% stimulation) (T47D cells): 21.0%
PI [100 nM] (% inhibition) (T47D cells): 52.0%
pIC50 (T47D cells): 7.2

COc1cc(NC(=O)OC2C[C@]3(C)[C@@H](C(C)=O)CC[C@H]3[C@@H]3C=CC4=CC(=O)CC[C@@]4(C)[C@H]23)cc(-n2cnnn2)c1 (some centres unmarked) [compound 104, (3-Methoxy-5-tetrazol-1-yl-phenyl)-carbamic aciddydrogesterone-11-yl ester]
PS [100 nM] (% stimulation) (T47D cells): 1.0%
PI [100 nM] (% inhibition) (T47D cells): 45.0%
pIC50 (T47D cells): 6.9
